Patent US20160201132A1, “GENE EXPRESSION BIOMARKERS OF LAQUINIMOD RESPONSIVENESS” (Teva Pharmaceutical Industries Ltd., priority 2013, published 2016)

Tested on: PBMC of RRMS patients
Assay: Gene expression microarray analysis (HG-U133A-2) of PBMC from RRMS patients treated with LAQ, ancillary study to ALLEGRO
Type: in vivo, human
Conditions: for Fold-Change (1.0 vs. 0.0): one month of treatment
Text: The goal of this ancillary study was to characterize gene expression changes and corresponding biological mechanisms induced in PBMC of RRMS patients by LAQ treatment. According to ALLEGRO clinical trial inclusion criteria, 25 patients were randomly assigned to receive LAQ (n=13, age 38.8±2.3 years, female/male ratio: 8/5) or placebo (n=12, age 37.2±3.4 years, female/male ratio: 8/4).
Peripheral blood samples were obtained from RRMS patients at baseline before start of LAQ treatment or placebo, after 0, 1, 6 and 24 month of treatment (visit 0, 1, 6 and 7 according to ALLEGRO clinical trial protocol correspondently) for gene microarray analysis.
Briefly, 1) Peripheral blood mononuclear cells (PBMC) were obtained from RRMS patients that participated in ALLEGRO and were treated daily with 0.6 mg LAQ or placebo. PBMC were subjected for gene expression analysis (HU-133A-2-Affymatrix arrays) at baseline and at 1 and 6 months of LAQ treatment; 2) Data was analyzed by Partek Genomics Solution software. Most informative genes (MIGs) were defined as those that differentiated between groups with p<0.01. Gene functional annotation, enrichment and pathway analysis were performed by Ingenuity software. For each time point, genes that changed in placebo group were excluded from further analysis; and 3) Verification of LAQ related mechanism was performed by Western blot.
PBMC were extracted from 15 ml peripheral blood, separated by Ficoll-Hypaque gradient. Total RNA was extracted using both Trizol (Invitrogen, USA) and Phase-Lock-Gel columns (Eppendorf, Germany) including a DNase digestion step. RNA integrity was assessed by RNA Experion automated electrophoresis system (Bio-Rad Laboratories, Hercules, Calif.).
Probe synthesis using 3 μg total RNA, hybridization, detection, and scanning was performed according to the standard Affymetrix, Inc. USA protocols; cDNA was synthesized using the Two-Cycle cDNA Synthesis Kit (Affymetrix, Inc., USA), and in-vitro transcription performed with the GeneChip IVT Labeling Kit (Affymetrix, Inc., USA). The biotin-labeled IVT-RNA was hybridized to HG-U133A-2 arrays containing 18,400 gene transcripts, each corresponding to 14,500 well-annotated human genes, washed in a GeneChip Fluidics Station 450 (Hewlett Packard, USA, GeneArray-™ scanner G2500A) and scanned according to the manufacturer's protocol (Affymetrix, Inc., USA).
Data analysis was performed on Partek Genomics Solution software (www.partek.com; Partek Incorporated, St. Louis, Mo.). Expression values were computed from raw CEL files by applying the Robust Multi-Chip Average (RMA) background correction algorithm. RMA correction included: 1) values background correction; 2) quintile normalization; 3) log 2 transformation; and 4) median polish summarization. The ANOVA, Repeated Measures and correlation analysis implicated in Partek software ware applied to evaluate LAQ effects. Most informative genes MIGs were defined as those that differentiated between experimental groups with p<0.01. All p-values were calculated for False Discovery Rate (FDR) multiple test correction at p=0.05.
Additionally, significance of individual genes was tested by parametric T-test and non parametric Mann-Whitney test using Bootstrapping approach based on repeated permutations of the data with 5% FDR for multiple testing.
Gene functional annotation, enrichment, and pathway analyses to identify the leading biological pathways that operated under LAQ treatment were performed by Ingenuity Pathways Analysis software (www.ingenuity.com).
ANOVA analysis was used to compare PBMC gene expression after 1, 6 or 24 month of LAQ treatment with baseline gene expression.
For each time point inventors performed analysis source of variation in dataset. (FIG. 1). Age, gender and batch effects were considered as confounders regarding LAQ or Placebo related changes. For each time point genes associated with Placebo effect were evaluated and excluded from further analysis. […]

[1] = 1 month of LAQ 0.6 mg/day vs baseline
[2] = 6 months of LAQ 0.6 mg/day vs baseline
[3] = 1564 FDR genes, combined 6 and 24 months

Structure (SMILES): CCN(C(=O)c1c(O)c2c(Cl)cccc2n(C)c1=O)c1ccccc1 [LAQ, 5-chloro-N-ethyl-4-hydroxy-1-methyl-2-oxo-N-phenyl-1,2-dihydroquinoline-3-carboxamide]
- # of genes p < 0.01 (LAQ related MIGs, ANOVA) [1]: 354
- Down regulated genes (LAQ related MIGs) [1]: 348
- Up-regulated genes (LAQ related MIGs) [1]: 6
- # of genes p < 0.01 (LAQ related MIGs, ANOVA) [2]: 1562
- Down regulated genes (LAQ related MIGs) [2]: 1552
- Up-regulated genes (LAQ related MIGs) [2]: 10
- p, suppression of genes related to the TGFB pathway (6 months or longer treatment): 1.9*10^−2
- genes (n), suppression of cell migration function [3]: 233
- genes (n), suppression of chemotaxis [3]: 78
- p, suppression of cell migration function [3]: 4.5*10^−14
- p, suppression of chemotaxis [3]: 4.3*10^−5
- Fold-Change (1.0 vs. 0.0) (202280_at (gene symbol not given)): −1.157
- Fold-Change (1.0 vs. 0.0) (ABLIM3 205730_s_at): −1.542
- Fold-Change (1.0 vs. 0.0) (ALDOB 204704_s_at): −1.119
- Fold-Change (1.0 vs. 0.0) (APBA2 209871_s_at): −1.163
- Fold-Change (1.0 vs. 0.0) (ARHGEF10 215139_at): −1.176
- Fold-Change (1.0 vs. 0.0) (ARMCX6 /// LOC653354 214749_s_at): −1.178
- Fold-Change (1.0 vs. 0.0) (ASAP2 206414_s_at): −1.773
- Fold-Change (1.0 vs. 0.0) (C1orf116 219476_at): −1.222
- Fold-Change (1.0 vs. 0.0) (CA5A 207421_at): −1.243
- Fold-Change (1.0 vs. 0.0) (CALD1 201617_x_at): −1.326
- Fold-Change (1.0 vs. 0.0) (CALD1 212077_at): −1.896
- Fold-Change (1.0 vs. 0.0) (CAPRIN1 200722_s_at): −1.157
- Fold-Change (1.0 vs. 0.0) (CCDC93 209689_at): −1.133
- Fold-Change (1.0 vs. 0.0) (CD84 211190_x_at): −1.166
- Fold-Change (1.0 vs. 0.0) (CDC14B 208022_s_at): −1.4133
- Fold-Change (1.0 vs. 0.0) (CLDN5 204482_at): −1.364
- Fold-Change (1.0 vs. 0.0) (CTDSPL 201905_s_at): −1.468
- Fold-Change (1.0 vs. 0.0) (DLG4 210684_s_at): −1.187
- Fold-Change (1.0 vs. 0.0) (DNM3 209839_at): −1.8
- Fold-Change (1.0 vs. 0.0) (FABP7 205030_at): −1.176
- Fold-Change (1.0 vs. 0.0) (FAM12B 220759_at): −1.1468
- Fold-Change (1.0 vs. 0.0) (FBXO7 201178_at): −1.135
- Fold-Change (1.0 vs. 0.0) (FBXW7 218751_s_at): −1.112
- Fold-Change (1.0 vs. 0.0) (FSTL1 208782_at): −1.694
- Fold-Change (1.0 vs. 0.0) (GNAS 200780_x_at): −1.158
- Fold-Change (1.0 vs. 0.0) (GNAS 200981_x_at): −1.1585
- Fold-Change (1.0 vs. 0.0) (GNAS 212273_x_at): −1.156
- Fold-Change (1.0 vs. 0.0) (GNAS 214548_x_at): −1.159
- Fold-Change (1.0 vs. 0.0) (GNB5 207124_s_at): −1.1663
- Fold-Change (1.0 vs. 0.0) (GNB5 211871_x_at): −1.159
- Fold-Change (1.0 vs. 0.0) (GP1BA 207389_at): −1.548
- Fold-Change (1.0 vs. 0.0) (GPRASP1 204793_at): −1.16
- Fold-Change (1.0 vs. 0.0) (GRAP2 208406_s_at): −1.394
- Fold-Change (1.0 vs. 0.0) (GSPT1 217595_at): −1.116
- Fold-Change (1.0 vs. 0.0) (GUCY1B3 203817_at): −1.73
- Fold-Change (1.0 vs. 0.0) (H2BFS /// HIST1H2BK 208579_x_at): −1.481
- Fold-Change (1.0 vs. 0.0) (HIST1H2AC 215071_s_at): −1.628
- Fold-Change (1.0 vs. 0.0) (HIST1H2AJ 208583_x_at): −1.278
- Fold-Change (1.0 vs. 0.0) (HIST1H2BK 209806_at): −1.418
- Fold-Change (1.0 vs. 0.0) (HLA-E 217456_x_at): −1.062
- Fold-Change (1.0 vs. 0.0) (IGF2BP3 203819_s_at): −1.72
- Fold-Change (1.0 vs. 0.0) (ITGB1 211945_s_at): −1.17
- Fold-Change (1.0 vs. 0.0) (ITGB3 204628_s_at): −1.579
- Fold-Change (1.0 vs. 0.0) (ITGB3 215240_at): −1.589
- Fold-Change (1.0 vs. 0.0) (ITGB5 201125_s_at): −1.713
- Fold-Change (1.0 vs. 0.0) (LIMS1 207198_s_at): −1.445
- Fold-Change (1.0 vs. 0.0) (LIMS1 212687_at): −1.3332
- Fold-Change (1.0 vs. 0.0) (LOC150776 /// SMPD4 207856_s_at): −1.0672
- Fold-Change (1.0 vs. 0.0) (LOC157627 214839_at): 1.326
- Fold-Change (1.0 vs. 0.0) (LUC7L2 220099_s_at): −1.155
